# US20040175763A1, “Crohn's disease antibody-binding peptide and method of examining crohn's disease” (priority 2001, published 2004)
# Columns and labels:
# [1] = system: Crohn's disease antibody; assay: Reaction inhibition test with one amino acid-substituted MAP peptides on CDP3 MAP plate (Example 6(2)); assay type: binding, human; conditions: inhibitor MAP peptide 100 μg/mL
# Experimental: Referring to the amino acid sequence of CDP peptide, in order to determine the sequence necessary for the specific reactivity to Crohn's disease antibody, the following reaction inhibition test was performed using each of the one amino acid-substituted MAP peptides prepared as above as the reaction inhibitor.
# More particularly, using the MAP plate prepared by immobilizing the MAP peptide of CDP3 (see Example 2(1)) as the antigen plate, the test was performed by 3 reaction steps. In the primary reaction, the Crohn's disease patient serum was diluted 100-fold with a sample diluent containing the one amino acid-substituted MAP peptide in a concentration of 100 μg/mL (0.1 M Tris-buffer containing 0.5 M sodium chloride, 1.5% casein, 2% normal goat serum and 0.2% Tween 20) and reacted at 25° C. for one hour. In the secondary reaction, 100 μL/well of the primary reaction mixture was added to the plate and reacted at 25° C. for one hour, after which the plate was washed 3 times. In the tertiary reaction, 100 μL/well of HRP-labeled anti-human IgG (Fc)-specific antibody diluted 5,000-fold in an enzyme-labeled antibody diluent (Tris buffer containing 0.14 M sodium chloride, 0.5% BAS, 5% normal goat serum and 0.05% Tween 20) was added to the plate, and reacted at 25° C. for 1 hour, followed by 3 rounds of washing. Detection was performed as in Example 2(1) to measure the reaction-inhibiting activity of the one amino acid-substituted MAP peptide.
# [2] = system: Crohn's disease patient serum antibody; assay: Phage ELISA of CD-binding peptide display phage clones with serum samples; parameters: species or system human; conditions: 20 Crohn's disease, 20 ulcerative colitis, 20 healthy volunteer serum samples
# Experimental: Using the monoclonal CD-binding peptide display phage obtained as above, phage ELISA was carried out with the same healthy volunteer serum pool and Crohn's disease patient serum pool as used in the above biopanning (cf. (i)).
# In the ELISA, an anti-phage antibody (Pharmacia) was immobilized on a 96-well microtiter plate in the first place. Specifically, this immobilization was carried out by adding an anti-phage antibody (Pharmacia) solution prepared in a 1 μg/ml concentration with (D)-PBS, to the plate, 100 μl per well. The plate was left sitting at 4° C. overnight and then washed, and after addition of 300 μl of blocking solution ((D)-PBS containing 1% BSA and 5% sorbitol), further left sitting at 4° C. overnight.
# The primary reaction was carried out as follows. Thus, 10 μl of the phage solution in (ii) was added to 90 μl of phage ELISA buffer ((D)-PBS containing 1% BSA, 0.05% Tween 20 and 10% normal goat serum), the mixture was added to each well coated with said anti-phage antibody, and the reaction was conducted at 37° C. for 1 hour. After completion of the primary reaction, the plate was washed 4 times and the secondary reaction was carried out. The secondary reaction was performed by adding the mixture containing 1 μl of serum (healthy volunteer serum or Crohn's disease patient serum) and 100 μl of phage ELISA buffer, to each well, and allowing the reaction to proceed at 37° C. for 1 hour. After completion of the secondary reaction, the plate was washed 4 times and the tertiary reaction was carried out. The tertiary reaction was conducted by adding HRP (horseradish peroxidase)-labeled anti-human IgG (Fc)-specific antibody, diluted 40,000-fold in phage ELISA buffer (20 ng/ml) in advance, to the plate, 100 μl per well, and allowing the reaction to proceed at 37° C. for one hour. After completion of the tertiary reaction, the plate was washed and a color development reaction was carried out. The color development was conducted by adding TMB (3,3′,5,5′-tetramethylbenzidine) solution to the plate, allowing the reaction to proceed at room temperature for 10 minutes, and stopping the reaction with a stopper (1N sulfuric acid). The plate after reaction stopping was measured for absorbance (OD 450 nm) with a plate reader to evaluate the reactivity with the serum antibody.
# For the 5 clones thus selected, the reactivity (ELISA) with the respective serum samples (Crohn's disease patient serum, ulcerative colitis patient serum, and healthy volunteer serum) was evaluated.
# [3] = system: Crohn's disease antibody (serum IgG); assay: ELISA using each branched multiple antigenic peptide (MAP peptide) as the antigen; assay type: binding, human; conditions: for Positive rate Ulcerative colitis patients: 20 ulcerative colitis patient sera; for Positive rate Ulcerative colitis patients / Positive rate Healthy volunteers: cut-off mean OD+5SD of 48 healthy volunteer sera; for reaction with ulcerative colitis patient sera or healthy volunteer sera: 20 ulcerative colitis, 48 healthy volunteer serum samples; for Positive rate Healthy volunteers: 48 healthy volunteer sera
# Experimental: Using each MAP peptide (the MAP peptides of CDP-1, CDP-2, CDP-3, and CDP-4; see FIG. 2) obtained in Example 1 as the antigen peptide, the reactivity to each serum sample (Crohn's disease patient serum, ulcerative colitis patient serum, and healthy volunteer serum) was evaluated by ELISA.
# In the first place, each MAP peptide was immobilized on a 96-well microtiter plate. Thus, this immobilization was carried out in accordance with the protocol which comprises dissolving each MAP peptide in bicarbonate buffer (50 mM, pH 9.6) at a concentration of 1 μg/ml to prepare a MAP solution, adding the solution to the antigen plate, 100 μl per well, then leaving the plate sitting at 4° C. overnight, washing it, adding 300 μl of casein solution ((D)-PBS containing 0.1% casein and 1% Triton X-100), and leaving the plate sitting again at 4° C. overnight.
# (i) Using the MAP plates carrying the respective MAP peptides immobilized, the reactivity of each MAP peptide to 20 Crohn's disease patient serum samples, 20 ulcerative colitis patient serum samples and 48 healthy volunteer serum samples was verified by ELISA.
# More particularly, a primary reaction was carried out by adding mixture containing 1 μl of the serum antibody and 100 μl of casein solution to each well of the MAP plate, and allowing the reaction to proceed at 37° C. for one hour. After completion of the primary reaction, the plate was washed 4 times and a 20,000-fold dilution of HRP-labeled anti-human IgG(Fc)-specific antibody in casein solution was added into the wells and incubated at 37° C. for one hour to carry out a secondary reaction. After completion of the secondary reaction, the plate was washed 4 times and a color development reaction was carried out. For detection, 100 μl of TMB solution was added to the plate and reacted at room temperature for 10 minutes, at the end of which time the reaction was stopped by adding 100 μl of TMB stop solution (1N sulfuric acid). The absorbance at OD 450 nm was measured with a plate reader to investigate the reactivity to each MAP plate for each serum. […] It can also be seen in FIG. 3 that the reactivity of each MAP peptide to Crohn's disease patient serum varied among different kinds of MAP peptides without consistency.
# (ii) Then, using a large number of serum samples (96 Crohn's disease patient serum samples, 20 ulcerative colitis patient serum samples, and 48 healthy volunteer serum samples), the reactivity of the above MAP peptides (the MAP peptides of CDP-1, CDP-2, CDP-3, and CDP-4) was investigated by the same method as in (i) to evaluate the specificity of the respective peptides to Crohn's disease patient sera.
substance,measurement,setting,value
A A G E L R Q S D G Q Y Q M (AAGELRQSDGQYQM) [CDP3-2],"reaction-inhibiting activity, Patient serum sample No. 2",[1],+++ (+++: reaction-inhibiting activity = 70%)
same,"reaction-inhibiting activity, Patient serum sample No. 7",[1],+++ (+++: reaction-inhibiting activity = 70%)
same,"reaction-inhibiting activity, Patient serum sample No. 8",[1],+++ (+++: reaction-inhibiting activity = 70%)
A E A E L R Q S D G Q Y Q M (AEAELRQSDGQYQM) [CDP3-3],"reaction-inhibiting activity, Patient serum sample No. 2",[1],+++ (+++: reaction-inhibiting activity = 70%)
same,"reaction-inhibiting activity, Patient serum sample No. 7",[1],+++ (+++: reaction-inhibiting activity = 70%)
same,"reaction-inhibiting activity, Patient serum sample No. 8",[1],+++ (+++: reaction-inhibiting activity = 70%)
A E G A L R Q S D G Q Y Q M (AEGALRQSDGQYQM) [CDP3-4],"reaction-inhibiting activity, Patient serum sample No. 2",[1],+++ (+++: reaction-inhibiting activity = 70%)
same,"reaction-inhibiting activity, Patient serum sample No. 7",[1],+++ (+++: reaction-inhibiting activity = 70%)
same,"reaction-inhibiting activity, Patient serum sample No. 8",[1],+++ (+++: reaction-inhibiting activity = 70%)
A E G E A R Q S D G Q Y Q M (AEGEARQSDGQYQM) [CDP3-5],"reaction-inhibiting activity, Patient serum sample No. 2",[1],+++ (+++: reaction-inhibiting activity = 70%)
same,"reaction-inhibiting activity, Patient serum sample No. 7",[1],+++ (+++: reaction-inhibiting activity = 70%)
same,"reaction-inhibiting activity, Patient serum sample No. 8",[1],+++ (+++: reaction-inhibiting activity = 70%)
A E G E L A Q S D G Q Y Q M (AEGELAQSDGQYQM) [CDP3-6],"reaction-inhibiting activity, Patient serum sample No. 2",[1],+++ (+++: reaction-inhibiting activity = 70%)
same,"reaction-inhibiting activity, Patient serum sample No. 7",[1],+++ (+++: reaction-inhibiting activity = 70%)
same,"reaction-inhibiting activity, Patient serum sample No. 8",[1],+++ (+++: reaction-inhibiting activity = 70%)
A E G E L R A S D G Q Y Q M (AEGELRASDGQYQM) [CDP3-7],"reaction-inhibiting activity, Patient serum sample No. 2",[1],− (−: reaction-inhibiting activity = 30%)
same,"reaction-inhibiting activity, Patient serum sample No. 7",[1],− (−: reaction-inhibiting activity = 30%)
same,"reaction-inhibiting activity, Patient serum sample No. 8",[1],− (−: reaction-inhibiting activity = 30%)
A E G E L R Q A D G Q Y Q M (AEGELRQADGQYQM) [CDP3-8],"reaction-inhibiting activity, Patient serum sample No. 2",[1],+++ (+++: reaction-inhibiting activity = 70%)
same,"reaction-inhibiting activity, Patient serum sample No. 7",[1],+++ (+++: reaction-inhibiting activity = 70%)
same,"reaction-inhibiting activity, Patient serum sample No. 8",[1],+++ (+++: reaction-inhibiting activity = 70%)
A E G E L R Q S A G Q Y Q M (AEGELRQSAGQYQM) [CDP3-9],"reaction-inhibiting activity, Patient serum sample No. 2",[1],− (−: reaction-inhibiting activity = 30%)
same,"reaction-inhibiting activity, Patient serum sample No. 7",[1],+ (+: reaction-inhibiting activity between 30% and 50%)
same,"reaction-inhibiting activity, Patient serum sample No. 8",[1],− (−: reaction-inhibiting activity = 30%)
A E G E L R Q S D A Q Y Q M (AEGELRQSDAQYQM) [CDP3-10],"reaction-inhibiting activity, Patient serum sample No. 2",[1],+ (+: reaction-inhibiting activity between 30% and 50%)
same,"reaction-inhibiting activity, Patient serum sample No. 7",[1],+++ (+++: reaction-inhibiting activity = 70%)
same,"reaction-inhibiting activity, Patient serum sample No. 8",[1],+++ (+++: reaction-inhibiting activity = 70%)
A E G E L R Q S D G A Y Q M (AEGELRQSDGAYQM) [CDP3-11],"reaction-inhibiting activity, Patient serum sample No. 2",[1],− (−: reaction-inhibiting activity = 30%)
same,"reaction-inhibiting activity, Patient serum sample No. 7",[1],+ (+: reaction-inhibiting activity between 30% and 50%)
same,"reaction-inhibiting activity, Patient serum sample No. 8",[1],− (−: reaction-inhibiting activity = 30%)
A E G E L R Q S D G Q A Q M (AEGELRQSDGQAQM) [CDP3-12],"reaction-inhibiting activity, Patient serum sample No. 2",[1],+++ (+++: reaction-inhibiting activity = 70%)
same,"reaction-inhibiting activity, Patient serum sample No. 7",[1],+++ (+++: reaction-inhibiting activity = 70%)
same,"reaction-inhibiting activity, Patient serum sample No. 8",[1],+++ (+++: reaction-inhibiting activity = 70%)
A E G E L R Q S D G Q Y A M (AEGELRQSDGQYAM) [CDP3-13],"reaction-inhibiting activity, Patient serum sample No. 2",[1],+ (+: reaction-inhibiting activity between 30% and 50%)
same,"reaction-inhibiting activity, Patient serum sample No. 7",[1],+++ (+++: reaction-inhibiting activity = 70%)
same,"reaction-inhibiting activity, Patient serum sample No. 8",[1],++ (++: reaction-inhibiting activity between 50% and 70%)
A E G E L R Q S D G Q Y Q A (AEGELRQSDGQYQA) [CDP3-14],"reaction-inhibiting activity, Patient serum sample No. 2",[1],+++ (+++: reaction-inhibiting activity = 70%)
same,"reaction-inhibiting activity, Patient serum sample No. 7",[1],+++ (+++: reaction-inhibiting activity = 70%)
same,"reaction-inhibiting activity, Patient serum sample No. 8",[1],+++ (+++: reaction-inhibiting activity = 70%)
AEGEL GLLAQQMDY ADPA [CD-1],specificity to Crohn's disease patient serum (phage ELISA reactivity),[2],high specificity to Crohn's disease patient serum
AEGEL RLVGQQVMQ GDPA [CD-5],specificity to Crohn's disease patient serum (phage ELISA reactivity),[2],high specificity to Crohn's disease patient serum
AEGELGGIYQDLVSGDPA [CDP-4],Positive rate Ulcerative colitis patients,[3],5% (1/20)
same,reaction with ulcerative colitis patient sera or healthy volunteer sera,[3],did not appreciably react
same,Positive rate Healthy volunteers,[3],4.2% (2/48)
AEGELGLLAQQMDYADPA [CDP-1],Positive rate Ulcerative colitis patients,[3],0% (0/20)
same,reaction with ulcerative colitis patient sera or healthy volunteer sera,[3],did not appreciably react
same,Positive rate Healthy volunteers,[3],4.2% (2/48)
AEGELRQSDGQYQMGDPA [CDP-3],Positive rate Ulcerative colitis patients,[3],0% (0/20)
same,reaction with ulcerative colitis patient sera or healthy volunteer sera,[3],did not appreciably react
same,Positive rate Healthy volunteers,[3],0% (0/48)
AEGELYRWLPPSSAGDPA [CDP-2],Positive rate Ulcerative colitis patients,[3],5% (1/20)
same,reaction with ulcerative colitis patient sera or healthy volunteer sera,[3],did not appreciably react
same,Positive rate Healthy volunteers,[3],2.1% (1/48)
S E G E L R Q S D G Q Y Q M (SEGELRQSDGQYQM) [CPP3-1],"reaction-inhibiting activity, Patient serum sample No. 2",[1],+++ (+++: reaction-inhibiting activity = 70%)
same,"reaction-inhibiting activity, Patient serum sample No. 7",[1],+++ (+++: reaction-inhibiting activity = 70%)
same,"reaction-inhibiting activity, Patient serum sample No. 8",[1],+++ (+++: reaction-inhibiting activity = 70%)
